For assay [1], the system named is ApGLNT1 glutamine transporter. The settings on record: Price et al., 2014 PNAS; cited from earlier work.
Assay [2] has as its system Sitophilus maize weevils. As to the kind of experiment: Weevil offspring emergence (fecundity). Particulars: 2.5 mg/ml ciprofloxacin; till day 43.
The subject of assay [3] is Sitophilus maize weevils. As to the kind of experiment: Weevil F1 offspring development (dissection of corn kernels). Format: in vivo, Sitophilus zeamais. Particulars: for offspring in the larval form: after 25 days; for number of offspring found in dissected corn kernels: after 25 days (water 12).
Assay [4] concerns Sitophilus maize weevils. The assay is described as follows: Weevil survival monitoring. The format is in vivo, Sitophilus zeamais. Particulars: S. zeamais mating pairs; 250 μg/ml or 2.5 mg/ml ciprofloxacin; 18 days. On the procedure:
Sitophilus maize weevils (Sitophilus zeamais) were reared on organic corn at 27.5° C. and 70% relative humidity. Prior to being used for weevil rearing, corn was frozen for 7 days and then tempered to 10% humidity with sterile water. […] For treatments, the appropriate amount of stock solution was diluted in sterile water.
Weevil survival was monitored daily for 18 days, after which DNA was extracted from the remaining weevils in each group. Briefly, the weevil body was surface sterilized by dipping the weevil into a 6% bleach solution for approximately 5 seconds. […] DNA concentration was measured using a nanodrop nucleic acid quantification, and SPE and weevil DNA copy numbers were measured by qPCR. […] The primers used for weevil (β-actin) were SACT144_FOR ([…]; SEQ ID NO: 240) and SACT314_REV ([…]; SEQ ID NO: 241) (Login et al., 2011). qPCR was performed using a qPCR amplification ramp of 1.6 degrees C./s and the following conditions: 1) 95° C. for 10 minutes, 2) 95° C. for 15 seconds, 3) 57° C. for 30 seconds, 4) repeat steps 2-3 40×, 5) 95° C. for 15 seconds, 6) 55° C. for 1 minute, 7) ramp change to 0.15 degrees C./s, 8) 95° C. for 1 second. qPCR data was analyzed using analytic (Thermo Fisher Scientific, QuantStudio Design and Analysis) software.

Assay [5] concerns Escherichia coli DH5α. As to the kind of experiment: Assessment of antibiotic penetration into corn (E. coli growth on LB plates). The settings on record: kernels soaked in 2.5 or 0.25 mg/ml ciprofloxacin. The format is cell-based. How it is done: The kernels were soaked for 1.5 hours as described herein. After soaking, kernels were air dried and assayed to determine whether the antibiotic was able to coat and penetrate the kernel. To test this, a concentrated sample of Escherichia coli DH5α in water was spread onto 5 Luria Broth (LB) plates. […] The plates were incubated overnight at 37 degrees C. and bacterial growth and/or zone(s) of inhibition were assessed the next day.
A concentrated culture of E. coli was then spread onto LB plates and one of the coated kernels was then placed onto the center of the plate. The plates were incubated overnight, and bacterial growth was assessed the next day.
The plates were incubated overnight and the next day bacterial growth was assessed.

Assay [6] deals with Acyrthosiphon pisum aphids. As to the kind of experiment: Aphid survival monitoring. The format is in vivo. The settings on record: eNASCO; for aphid survival rate: leaf coating, 10 uM pantothenol.
The test system of assay [7] is endosymbiotic Buchnera. As to the kind of experiment: Buchnera/aphid DNA copy numbers by qPCR. Format: in vivo, Buchnera aphidicola. The settings on record: 10 or 100 uM pantothenol, 8 days. On the procedure: After 7 days of treatment, DNA was extracted from multiple aphids from each treatment group. Briefly, the aphid body surface was sterilized by dipping the aphid into a 6% bleach solution for approximately 5 seconds. Aphids were then rinsed in sterile water and DNA was extracted from each individual aphid using a DNA extraction kit (Qiagen, DNeasy kit) according to manufacturer's instructions. DNA concentration was measured using a nanodrop nucleic acid quantification, and Buchnera and aphid DNA copy numbers were measured by qPCR. […]
After 8 days of treatment, DNA was extracted from multiple aphids from each treatment group. Briefly, the aphid body surface was sterilized by dipping the aphid into a 6% bleach solution for approximately 5 seconds. Aphids were then rinsed in sterile water and DNA was extracted from each individual aphid using a DNA extraction kit (Qiagen, DNeasy kit) according to manufacturer's instructions. DNA concentration was measured using a nanodrop nucleic acid quantification, and Buchnera and aphid DNA copy numbers were measured by qPCR.
After 8 days of treatment, DNA was extracted from the remaining aphids in each treatment group. Briefly, the aphid body surface was sterilized by dipping the aphid into a 6% bleach solution for approximately 5 seconds. Aphids were then rinsed in sterile water and DNA was extracted from each individual aphid using a DNA extraction kit (Qiagen, DNeasy kit) according to manufacturer's instructions. DNA concentration was measured using a nanodrop nucleic acid quantification, and Buchnera and aphid DNA copy numbers were measured by qPCR.
After 7 of treatment, DNA was extracted from the remaining aphids in each treatment group. Briefly, the aphid body surface was sterilized by dipping the aphid into a 6% bleach solution for approximately 5 seconds. Aphids were then rinsed in sterile water and DNA was extracted from each individual aphid using a DNA extraction kit (Qiagen, DNeasy kit) according to manufacturer's instructions. DNA concentration was measured using a nanodrop nucleic acid quantification, and Buchnera and aphid DNA copy numbers were measured by qPCR.
Briefly, the aphid body surface was sterilized by dipping the aphid into a 6% bleach solution for approximately 5 seconds. Aphids were then rinsed in sterile water and DNA was extracted from each individual aphid using a DNA extraction kit (Qiagen, DNeasy kit) according to manufacturer's instructions. DNA concentration was measured using a nanodrop nucleic acid quantification, and Buchnera and aphid DNA copy numbers were measured by qPCR.
After 3 days of treatment, DNA was extracted from the remaining living aphids from each treatment group. Briefly, the aphid body surface was sterilized by dipping the aphid into a 6% bleach solution for approximately 5 seconds. Aphids were then rinsed in sterile water and DNA was extracted from each individual aphid using a DNA extraction kit (Qiagen, DNeasy kit) according to manufacturer's instructions. DNA concentration was measured using a nanodrop nucleic acid quantification, and Buchnera and aphid DNA copy numbers were measured by qPCR. […]

The subject of assay [8] is Plasmodium falciparium. The settings on record: previous study (Saliba et al., 2005); cited from earlier work.
Assay [9] relates to Acyrthosiphon pisum aphids. As to the kind of experiment: Aphid body area (size) measurement from images. The format is in vivo. The settings on record: eNASCO; 10 or 100 uM pantothenol in artificial diet; by 3 days post-treatment. On the procedure: For adult aphids, new nymphs were counted daily and then discarded. At the end of the experiments, fecundity was determined as the mean number of offspring produced daily once the aphid reached adulthood. Pictures of aphids were taken throughout the experiment to evaluate size differences between treatment groups.
Each treatment group received approximately the same number of individuals from each of the collection plant. For each treatment, 20 aphids were placed onto each leaf. Aphids were monitored daily for survival and dead aphids were removed when they were discovered. In addition, the developmental stage (1st, 2nd, 3rd, 4th, 5th instar, and 5R, representing a reproducing 5th instar) was determined daily throughout the experiment. […]
For adult aphids, new nymphs were counted daily and then discarded. At the end of the experiments, fecundity was measured in two ways: 1) the mean day at which the first offspring for the treatment group was determined and 2) the mean number of offspring produced daily once the aphid reached adulthood. […]
Aphids LSR-1 (which harbor only Buchnera), Acyrthosiphon pisum were grown on fava bean plants (Vroma vicia faba from Johnny's Selected Seeds) in a climate-controlled incubator (16 h light/8 h dark photoperiod; 60±5% RH; 25±2° C.). […] Aphids were monitored daily for survival and dead aphids were removed from the deep petri dish when they were discovered. […]

The test system of assay [10] is Acyrthosiphon pisum aphids. As to the kind of experiment: Aphid fecundity (offspring production). The format is in vivo. The settings on record: for aphid reproduction: 10 or 100 uM pantothenol. How it is done: In addition, the developmental stage (1st, 2nd, 3rd, 4th, 5th, and 5R (5th that has reproduced) instar) was determined daily throughout the experiment. Once an aphid reached the 4th instar stage, they were given their own artificial feeding system in a deep petri dish so that fecundity could be monitored once they reached adulthood.
For adult aphids, new nymphs were counted daily and then discarded. At the end of the experiments, fecundity was measured in two ways: 1) the mean day at which the first offspring for the treatment group was determined and 2) the mean number of offspring produced daily once the aphid reached adulthood. Pictures of aphids were taken throughout the experiment to evaluate size differences between treatment groups. […]

For assay [11], the system named is Acyrthosiphon pisum aphids. As to the kind of experiment: Aphid developmental stage monitoring. The format is in vivo.

Entries after “also recorded” stand apart in the source; their conditions may differ.

With `N=C(N)NCCC[C@H](N)C(=O)O` [arginine], the glutamine uptake result in [1] is listed as “inhibits glutamine uptake by the glutamine transporter”.

For `O=C(O)c1cn(C2CC2)c2cc(N3CCNCC3)c(F)cc2c1=O` [ciprofloxacin], the “emerged F1 offspring” value in [2] is “much less offspring that emerged”. Further, the F1 weevil development entry in assay [3] (250 ug/ml and 2.5 mg/ml ciprofloxacin) is listed as “showed a delay in development compared to control treated weevils”. Moreover, in assay [3] (250 ug/ml ciprofloxacin), the “offspring in the larval form” value is 38% and the “number of offspring found in dissected corn kernels” value is given as 13 offspring. Besides, in assay [3] (2.5 mg/ml ciprofloxacin), the “offspring in the larval form” value is 65% and the “number of offspring found in dissected corn kernels” value is 20 offspring. Also, the weevil survival entry in [4] was “all weevils remained alive for the course of the experiment”. In addition, the “bacterial growth on plate with entire soaked corn kernel” value in [5] is listed as “no bacteria grew on plates with entire corn kernels”.

For `CC(C)(CO)[C@@H](O)C(=O)NCCCO` [pantothenol], the aphid survival result in assay [6] (10 or 100 uM pantothenol in artificial diet, through plants) is listed as “increased aphid mortality; also recorded: negatively affected aphid fitness”. For the same compound, the values for the aphid survival rate result in assay [6] and in assay [6] (listed as Pantothenol) were “lower survival rates than aphids placed on coated leaves with the control solution” and “resulted in aphid death”, respectively. The entries for the “Buchnera/aphid DNA copies” value in assay [7] and in assay [7] (listed as Pantothenol) were “does not affect Buchnera/aphid DNA copy number directly” and “did not affect endosymbiotic Buchnera”, respectively. Also, in assay [8], the “growth of Plasmodium falciparium” value is listed as “inhibits the growth of Plasmodium falciparium”. In [9], the aphid area entry was “drastic effect of pantothenol treatment; also recorded: smaller in area than untreated controls”. For the same compound, the “mean number of offspring per day produced by reproducing aphids” value in [10] (10 uM pantothenol (control approximately 7)) is recorded as “approximately 4 offspring/day”; in [10] (100 uM pantothenol (control approximately 7)), around 5 offspring/day. Further, the aphid reproduction entry in assay [10] was “loss of aphid reproduction”; in assay [10] (listed as Pantothenol) it was “resulted in loss of reproduction”. Also, the “mean day aphids began reproducing” value in [10] (all treatment groups (10 and 100 uM pantothenol)) was found to be 7 days. Further, the aphid developmental stage entry in assay [11] (eNASCO 1st and 2nd instar, 10 or 100 uM pantothenol in artificial diet without essential amino acids, through plants) was “Development was delayed”; in [11] (eNASCO 1st and 2nd instar, 10 or 100 uM pantothenol in artificial diet without essential amino acids, through plants, listed as Pantothenol), “delayed aphid development”; in [11] (eNASCO 1st instar, leaf coating, 10 uM pantothenol in 0.025% Silwet L-77), “did not affect aphid development”.

Values taken from patent US20190216093A1, “COMPOSITIONS AND RELATED METHODS FOR AGRICULTURE” (priority 2017, published 2019).
